Data as given in publication PMC9140012, “Epigenetic-Like Stimulation of Receptor Expression in SSTR2 Transfected HEK293 Cells as a New Therapeutic Strategy” (Cancers, 2022).
Where “and” joins values, the source holds several entries; their conditions need not be identical. Equal entries are not always repeated.

Tests used:
[1] = system: Forskolin-stimulated cAMP production; set-up: method as in PMID 29599907; details: BON-1 and QGP-1 stimulated with 5-aza-dC and VPA; cited from earlier work
[2] = system: HEKsst2 cells; assay: Radiotoxicity of Lu-177-DOTATATE on unstimulated and stimulated HEKsst2 (CFA); type: cell-based; details: for Survival Fraction: 24 h
Description: (§1) The stimulation process followed the protocol described above.
(§2) To determine the radiosensitivity and radiotoxicity, the clonogene cell survival was analyzed. Colony formation assays were performed as described earlier. The following steps have been done for each of the treatment procedures. Briefly, after detaching the treated cells, an aliquot of the cell suspension per dose point was distributed in T25 culture flasks for the colony formation test and is placed in an incubator for 7 (HEKsst2) or 10 days (PC3). To stop colony formation, the cells were fixed with ethanol 80% (v/v) followed by staining with crystal violet solution. The colony counting was carried out under a microscope (25× magnification). Colonies of more than 50 cells were scored as survivors. The plating efficiency (PE) and the survival rate (survival fraction SF) were calculated for irradiated and unirradiated cells based on the number of seeded cells.

[3] = system: SSTR2 in HEKsst2 cells; assay: Intracellular Lu-177-DOTATATE uptake, HEKsst2; type: cell-based, murine; details: for Lu-177-DOTATATE uptake (intracellular activity, % of total activity normalized to 2.0 × 10^5 cells): 37 °C; for Lu-177-DOTATATE uptake (intracellular activity, % of total activity normalized to 2.0 × 10^5 cells) / increase of Lu-177-DOTATATE uptake by a factor: 50 kBq; for increase of Lu-177-DOTATATE uptake by a factor: stimulated (5.0 µM 5-aza-dC, 1.85 mM VPA) vs unstimulated
Description: (§3) HEK293 cells were obtained from the German Resource Center for Biological Material (DSMZ, Braunschweig, Germany) and grown in Dulbecco’s modified Eagle´s medium supplemented with 10% fetal calf serum (FCS) in a humidified atmosphere containing 5% CO2. Cells were transfected with plasmid, encoding murine HA-tagged SSTR2 receptors using lipofectamine according to the manufacturing instructions (Thermofisher, Darmstadt, Germany). Stable transfectants were selected in the presence of 500 µg/mL G-418 and characterized using radioligand binding assays, Western blot analyses, surface ELISA assays and immunocytochemistry as described previously. Non-transfected HEK293 cells were maintained under equal conditions as HEKsst2 except for the addition of G-418. In the following, HEK293 cells and SSTR2 transfected HEK293 cells are termed as HEK and HEKsst2, respectively. The human prostate carcinoma cell line PC3 (ATCC®, Manassas, VA, USA) was cultured in a RPMI medium with 10% (v/v) FCS and 1% (v/v) non-essential amino acids (NEA). […] The culture medium of each cell line was renewed every 2–3 days. Via a PCR test, each cell line is proven to be free of mycoplasmas.
After incubation times, the supernatant of the well was removed and the cells were washed twice with PBS (phosphate buffered saline) at 4 °C. Supernatant and washed solution make up the non-bound fraction of the radioligand. The cell layers were lysed with 1 mL 0.1 M NaOH for 10 min at 37 °C. These fractions correspond to the intracellular fraction of radioligand. The activity of all fractions was measured using a Gamma-Counter (Cobra II, Autogamma, Packard®, Canberra Company, Ruesselsheim, Germany). The intracellular activity was expressed as a percentage of the total activity normalized to the cell count of 2.0 × 10^5.
To examine the statistical significance, an unpaired student’s t-test was used. A difference between two independent samples is significant if the probability of error p ≤ 0.05. For the statistical evaluation, MS Office Excel was used.

[4] = system: PC3 cells; assay: Radiotoxicity of Lu-177-DOTATATE on unstimulated and stimulated PC3 (CFA); type: cell-based, human; details: for cell survival of stimulated vs unstimulated PC3: 5-aza-dC and VPA
Description: as §1, §2

[5] = system: HEKsst2 cells; assay: Radiotoxic dose-response of Lu-177-DOTATATE (CFA), unstimulated HEKsst2; type: cell-based
Description: (§4) To show the dose-response relationship, the unstimulated HEKsst2 and PC3 cells were irradiated with absorbed doses of 0.1–7.5 Gy in an X-ray tube.
as §2

[6] = system: PC3 cells; assay: Radiotoxic dose-response of Lu-177-DOTATATE (CFA), unstimulated PC3; type: cell-based, human; details: up to 0.5 MBq/mL, 24 h, compared with HEKsst2
Description: as §4, §2

[7] = system: SSTR2 in HEKsst2 cells; assay: Saturation binding of Lu-177-DOTATATE, HEKsst2; set-up: species or system murine; details: for Kd: excess DOTATATE for non-specific binding; for number of binding sites per cell: from Bmax
Description: as §3
Excess DOTATATE (3.5 × 10^−3–7.03 nmol) was used to block receptors and determine the non-specific binding. The uptake data (triplicates per each condition) were fitted to a one-site binding model in GraphPad Prism 9.0 to determine the number of binding sites (Bmax) and the dissociation constant (Kd).
To determine the Bmax values and the Kd, the GraphPad Prism 9.0 software was used. Confidence Intervals (CI) express a 95% likelihood of the nonlinear fit.

[8] = system: PC3 cells; assay: Intracellular Lu-177-DOTATATE uptake, PC3; type: cell-based, human; details: 50 kBq
Description: HEK293 cells were obtained from the German Resource Center for Biological Material (DSMZ, Braunschweig, Germany) and grown in Dulbecco’s modified Eagle´s medium supplemented with 10% fetal calf serum (FCS) in a humidified atmosphere containing 5% CO2. Cells were transfected with plasmid, encoding murine HA-tagged SSTR2 receptors using lipofectamine according to the manufacturing instructions (Thermofisher, Darmstadt, Germany). Stable transfectants were selected in the presence of 500 µg/mL G-418 and characterized using radioligand binding assays, Western blot analyses, surface ELISA assays and immunocytochemistry as described previously. Non-transfected HEK293 cells were maintained under equal conditions as HEKsst2 except for the addition of G-418. In the following, HEK293 cells and SSTR2 transfected HEK293 cells are termed as HEK and HEKsst2, respectively. […]
After incubation times, the supernatant of the well was removed and the cells were washed twice with PBS (phosphate buffered saline) at 4 °C. […] The activity of all fractions was measured using a Gamma-Counter (Cobra II, Autogamma, Packard®, Canberra Company, Ruesselsheim, Germany). The intracellular activity was expressed as a percentage of the total activity normalized to the cell count of 2.0 × 10^5. […]

[9] = system: cell lines HEKsst2 and PC3; assay: A80/A60 of Lu-177-DOTATATE by colony formation assay, HEKsst2 and PC3; type: cell-based; details: 24 h incubation, value used for both HEKsst2 and PC3
Description: as §4, §1, §2

In the case of octreotide, the “inhibition of the Forskolin-stimulated cAMP production” value [1] is listed as “inhibition of the Forskolin-stimulated cAMP production”.

In the case of “(DOTA)-[Tyr3, Thr8]-octreotide [Lu-177-DOTATATE, SSTR2-targeted radioligand, Lu-177 labelled (DOTA)-[Tyr3, Thr8]-octreotide]”, the Survival Fraction ([2]; 57.5 kBq/mL Lu-177-DOTATATE, non-stimulated) is reported as 0.54, the Survival Fraction ([2]; 57.5 kBq/mL Lu-177-DOTATATE, stimulated with 5-aza-dC 0.25 µM and VPA 0.6 mM, normalized to SF = 1, p = 0.1424 vs unstimulated) is reported as 0.27 and the “factor of increase of radiotoxic effects, stimulated vs unstimulated” value ([2]; 57.5 kBq/mL, 5-aza-dC 0.25 µM and VPA 0.6 mM) is reported as 2. The Survival Fraction ([2]; 136 kBq/mL Lu-177-DOTATATE, stimulated with 5-aza-dC 0.46 µM and VPA 1.0 mM, normalized to SF = 1, p = 0.0029 vs unstimulated) was 0.09 and 0.1, the Survival Fraction ([2]; 136 kBq/mL Lu-177-DOTATATE, unstimulated) was 0.42 and the “factor of lower survival, stimulated vs unstimulated (radiotoxic effect increase)” value ([2]; 136 kBq/mL, 5-aza-dC 0.46 µM and VPA 1.0 mM) was 4. The “Lu-177-DOTATATE uptake (intracellular activity, % of total activity normalized to 2.0 × 10^5 cells)” value ([3]; 1 h, cells stimulated 5 days with 5.0 µM 5-aza-dC and 1.85 mM VPA, p = 0.0142 vs unstimulated, gamma counter) was 50.2%, the “Lu-177-DOTATATE uptake (intracellular activity, % of total activity normalized to 2.0 × 10^5 cells)” value ([3]; 1 h, unstimulated cells) was 1.8% and the “increase in Lu-177-DOTATATE uptake vs unstimulated” value (shortened to “increase in Lu-177-DOTATATE uptake”) ([3]; 1 h, 0.1 µM 5-aza-dC (and 1.85 mM VPA), p = 0.060) was “also shows stimulatory effects, no significant difference was found”. For the same substance, the “increase in Lu-177-DOTATATE uptake” value ([3]; 1 h, 5.0 µM 5-aza-dC and 1.85 mM VPA, p < 0.05) was 2800%, the “Lu-177-DOTATATE uptake (intracellular activity, % of total activity normalized to 2.0 × 10^5 cells)” value ([3]; 24 h, cells stimulated with 5.0 µM 5-aza-dC and 1.85 mM VPA, p = 0.0090 vs unstimulated) was 36.2% and the “Lu-177-DOTATATE uptake (intracellular activity, % of total activity normalized to 2.0 × 10^5 cells)” value ([3]; 24 h, unstimulated cells) was 5.6%. The “increase in Lu-177-DOTATATE uptake” value ([3]; 24 h, 3.9 µM 5-aza-dC and 1.85 mM VPA, p < 0.05) was “≈ 640%”, the “increase in Lu-177-DOTATATE uptake” value ([3]; 24 h, 5.0 µM 5-aza-dC and 1.85 mM VPA, p < 0.05) was “≈ 640%” and the “increase of Lu-177-DOTATATE uptake by a factor” value ([3]; 1 h, p = 0.0142) was 28. The “increase of Lu-177-DOTATATE uptake by a factor” value ([3]; 24 h, p = 0.0090) was 6.5, the “cell survival of stimulated vs unstimulated PC3” value ([4]; 57.5 kBq/mL Lu-177-DOTATATE, not statistically significant, p = 0.5482) was “higher SF fractions” and the “cell survival of stimulated vs unstimulated PC3” value ([4]; 136 kBq/mL Lu-177-DOTATATE, p = 0.5078) was “only a slight, statistically insignificant difference”. The “radiotoxic effects when stimulated with 5-aza-dC and VPA” value ([4]; PC3, Lu-177-DOTATATE 57.5 and 136 kBq/mL) was “no increase regarding the radiotoxic effects”, the “radioactivity concentration at which all SST2 receptors are engaged (assumed)” value ([5]; HEKsst2, equal to approximately 0.34 ng/500,000 cells) was 0.5 MBq/mL and the “decrease of SF values with Lu-177-DOTATATE concentration” value ([5]; unstimulated HEKsst2, 0.05-5 MBq/mL, 24 h) was “strong dose-dependent decrease of the SF values until the receptors seemed to be saturated”. For the same substance, the “decrease of the survival with Lu-177-DOTATATE concentration” value [6] was “much less pronounced”, the Bmax ([7]; HEKsst2 stimulated with 5-aza-dC and VPA, 1 h, 37 °C, one-site model, specific binding, 95% CI = 1.08 × 10^−9 to 1.62 × 10^−9 nmol) was 1.32e-09 nmol and the Kd ([7]; HEKsst2 stimulated with 5-aza-dC and VPA, 1 h, 37 °C, one-site model) was 4.88 nM. The “number of binding sites per cell” value ([7]; HEKsst2 stimulated with 5-aza-dC and VPA) was 7.95 × 10^5, the maximum total binding ([7]; almost reached at 0.5 MBq/mL Lu-177-DOTATATE, HEKsst2) was 17 kBq/500,000 cells and the Bmax ([7]; as restated in the discussion (Figure 3), unstimulated HEKsst2) was 4.4 × 10^−10 nmol/cell. The “Bmax as bound activity” value ([7]; corresponds to Bmax = 4.4 × 10^−10 nmol/cell) was 15.5 kBq/500,000 cells, the Bmax ([7]; unstimulated HEKsst2, 1 h, 37 °C, one-site model, specific binding, 95% CI = 4.15 × 10^−10 to 4.58 × 10^−10 nmol) was 4.36e-10 nmol and the Kd ([7]; unstimulated HEKsst2, 1 h, 37 °C, one-site model) was 2.1 nM. The “number of binding sites per cell” value ([7]; unstimulated HEKsst2) was 2.63 × 10^5, the “number of binding sites per cell, unstimulated compared to stimulated” value ([7]; unstimulated vs stimulated HEKsst2) was “three-fold lower” and the “Lu-177-DOTATATE uptake values compared to unstimulated cells” value ([8]; stimulated PC3, 1 h, p = 0.4935) was “marginal increase”. The “Lu-177-DOTATATE uptake values compared to unstimulated cells” value ([8]; stimulated PC3, 24 h, p = 0.3694) was “marginal increase”, the A60 ([9]; activity equivalent to X-ray D60 (1.2 Gy)) was 136 kBq/mL and the A80 ([9]; activity equivalent to X-ray D80 (0.6 Gy)) was 57.5 kBq/mL.
